IC50 data for 49 compounds are collected here from patent publication US11884683B2, “Tricyclic heterocycle compounds useful as HIV integrase inhibitors” (Merck Sharp & Dohme LLC, priority 2018, dated 2024).

Molecules are shown by their SMILES. Read-outs that look alike come from different tables or passages of the source.

The experiment relates to HIV-1 (H9/IIIB strain). In words: Multiple round HIV-1 infection assay in MT4-GFP cells (wild type cell assay, Viking). The experiment is classed as cell-based. Particulars: 0% NHS condition, MT4-GFP cells infected with HIV-1 H9/IIIB, inhibition of reproductive ratio R0, ~48 h and ~72 h post-infection, read-out: WILD TYPE CELL ASSAY Viking IP (0% NHS). How it is done: Assessing Antiviral Potency in a Multiple Round HIV-1 Infection Assay
The antiviral activity of the Examples herein was assessed in an assay that measures the rate of replication of HIV in cell culture, and performed according to the following procedure. HIV-1 replication was monitored using MT4-gag-GFP clone D3 (hereafter designated MT4-GFP), which are MT-4 cells modified to harbor a GFP reporter gene, the expression of which is dependent on the HIV-1 expressed proteins tat and rev. Productive infection of an MT4-GFP cell with HIV-1 results in GFP expression approximately 24 h post-infection. MT4-GFP cells were maintained at 37° C./5% CO2/90% relative humidity in RPMI 1640 supplemented with 10% fetal bovine serum, 100 U/ml penicillin/streptomycin, and 400 μg/ml G418 to maintain the reporter gene. For infections, MT4-GFP cells were placed in the same medium lacking G418 and infected overnight with HIV-1 (H9/IIIB strain) virus at an approximate multiplicity of infection of 0.01 in the same incubation conditions. Cells were then washed and re-suspended in either RPMI 1640 at 2×10^5 cells/mL (0% NHS condition) or 100% normal human serum (NHS) at 2×10^5 cells/mL (100% NHS condition). Compound plates were prepared by dispensing compounds dissolved in DMSO into wells of 384 well poly-D-lysine-coated plates (0.2 μl/well) using an ECHO acoustic dispenser. Each compound was tested in a 10-point serial 3-fold dilution (typical final concentrations: 1050 nM-0.05 nM for 0% NHS condition or […]-2.13 nM for 100% NHS condition). Controls included no inhibitor (DMSO only) and a combination of three antiviral agents (efavirenz, indinavir, an in-house integrase strand transfer inhibitor at final concentrations of […] each). Cells were added ([…]) to compound plates and the infected cells were maintained at 37° C./5% CO2/90% relative humidity.
Infected cells were quantified at two time points, ˜48 h and ˜72 h post-infection, by counting the number of green cells in each well using an Acumen eX3 scanner. The increase in the number of green cells over ˜24 h period gives the reproductive ratio, RO, which is typically 5-15 and has been shown experimentally to be in logarithmic phase (data not shown). Inhibition of R0 is calculated for each well, and IC50s determined by non-linear 4-parameter curve fitting.

Setting [1] is: Human immunodeficiency virus 1, IIIB.

Take `CC1N(C)C(=O)c2c(O)c(=O)c(C(=O)NCc3ccc(F)cc3F)c3n2N1CC3O` (single isomer, unassigned) [Compound 13]: under setting [1], the IC50 is 1.7 nM.

As to `CC1N(C)C(=O)c2c(O)c(=O)c(C(=O)NCc3ccc(F)cc3F)c3n2N1CC3O` (single isomer, unassigned) [Compound 14], the IC50 worked out at 1.4 nM.

Take `CC1N(C)C(=O)c2c(O)c(=O)c(C(=O)NCc3c(F)cc(F)cc3F)c3n2N1CC3O` (single isomer, unassigned) [Compound 17]: under setting [1], the IC50 came out at 1.5 nM.

Take `CC1N(C)C(=O)c2c(O)c(=O)c(C(=O)NCc3c(F)cc(F)cc3F)c3n2N1CC3O` (single isomer, unassigned) [Compound 18]: the IC50 worked out at 1.6 nM.

For `CC1N(C)C(=O)c2c(O)c(=O)c(C(=O)NCc3c(F)ccc(F)c3F)c3n2N1CC3O` (single isomer, unassigned) [Compound 21], the IC50 under setting [1] is 1.4 nM.

Consider `CC1N(C)C(=O)c2c(O)c(=O)c(C(=O)NCc3c(F)ccc(F)c3F)c3n2N1CC3O` (single isomer, unassigned) [Compound 22], for which the IC50 stood at 2.3 nM.

Take `CCC1N(C)C(=O)c2c(O)c(=O)c(C(=O)NCc3c(F)ccc(Cl)c3F)c3n2N1CC3O` (single isomer, unassigned) [Compound 25]: the IC50 under setting [1] worked out at 2 nM.

On to `CCC1N(C)C(=O)c2c(O)c(=O)c(C(=O)NCc3c(F)ccc(Cl)c3F)c3n2N1CC3O` (single isomer, unassigned) [Compound 26], for which the IC50 came out at 3.4 nM.

For the compound `CCC1N(C)C(=O)c2c(O)c(=O)c(C(=O)NCc3ccc(F)cc3F)c3n2N1CC3O` (single isomer, unassigned) [Compound 29], the IC50 came to 0.76 nM.

As for `CCC1N(C)C(=O)c2c(O)c(=O)c(C(=O)NCc3ccc(F)cc3F)c3n2N1CC3O` (single isomer, unassigned) [Compound 30], the IC50 worked out at 1.6 nM.

Consider `CCC1N(C)C(=O)c2c(O)c(=O)c(C(=O)NCc3c(F)cc(F)cc3F)c3n2N1CC3O` (single isomer, unassigned) [Compound 33], for which the IC50 under setting [1] was 1.4 nM.

Regarding `CCC1N(C)C(=O)c2c(O)c(=O)c(C(=O)NCc3c(F)cc(F)cc3F)c3n2N1CC3O` (single isomer, unassigned) [Compound 34], the IC50 stood at 2.8 nM.

`CCN1C(=O)c2c(O)c(=O)c(C(=O)NCc3c(F)ccc(Cl)c3F)c3n2N(CC3O)C1C` (single isomer, unassigned) [Compound 69]: the IC50 under setting [1] was found to be 1.9 nM.

`CCN1C(=O)c2c(O)c(=O)c(C(=O)NCc3c(F)ccc(Cl)c3F)c3n2N(CC3O)C1C` (single isomer, unassigned) [Compound 70]: the IC50 was 1.8 nM.

Turning to `CCN1C(=O)c2c(O)c(=O)c(C(=O)NCc3ccc(C(F)F)cc3)c3n2N(CC3O)C1C` (single isomer, unassigned) [Compound 73], the IC50 under setting [1] came to 80 nM.

As to `CCN1C(=O)c2c(O)c(=O)c(C(=O)NCc3ccc(C(F)F)cc3)c3n2N(CC3O)C1C` (single isomer, unassigned) [Compound 74], the IC50 stood at 66 nM.

On to `CCN1C(=O)c2c(O)c(=O)c(C(=O)NCc3ccc(C(F)(F)F)cc3)c3n2N(CC3O)C1C` (single isomer, unassigned) [Compound 77], for which the IC50 worked out at 258 nM.

Consider `CCN1C(=O)c2c(O)c(=O)c(C(=O)NCc3ccc(C(F)(F)F)cc3)c3n2N(CC3O)C1C` (single isomer, unassigned) [Compound 78], for which the IC50 amounted to 87 nM.

With `CCN1C(=O)c2c(O)c(=O)c(C(=O)NCc3c(F)ccc(F)c3F)c3n2N(CC3O)C1C` (single isomer, unassigned) [Compound 81], under setting [1], the IC50 came out at 2.8 nM.

As to `CCN1C(=O)c2c(O)c(=O)c(C(=O)NCc3c(F)ccc(F)c3F)c3n2N(CC3O)C1C` (single isomer, unassigned) [Compound 82], the IC50 is 2.2 nM.

Regarding `CCN1C(=O)c2c(O)c(=O)c(C(=O)NCc3ccc(F)cc3)c3n2N(CC3O)C1C` (single isomer, unassigned) [Compound 85], the IC50 under setting [1] amounted to 2.6 nM.

For `CCN1C(=O)c2c(O)c(=O)c(C(=O)NCc3ccc(F)cc3)c3n2N(CC3O)C1C` (single isomer, unassigned) [Compound 86], the IC50 came to 1.3 nM.

Turning to `CCN1C(=O)c2c(O)c(=O)c(C(=O)NCc3ccc(F)cc3F)c3n2N(CC3O)C1C` (single isomer, unassigned) [Compound 89], under setting [1], the IC50 is 1.9 nM.

For the compound `CCN1C(=O)c2c(O)c(=O)c(C(=O)NCc3ccc(F)cc3F)c3n2N(CC3O)C1C` (single isomer, unassigned) [Compound 90], the IC50 is 1.9 nM.

As for `CN1C(=O)c2c(O)c(=O)c(C(=O)NCc3ccc(F)cc3F)c3n2N(CC3O)C12CCOC2` (single isomer, unassigned) [Compound 111], the IC50 under setting [1] is 2.1 nM.

With `CN1C(=O)c2c(O)c(=O)c(C(=O)NCc3ccc(F)cc3F)c3n2N(CC3O)C12CCOC2` (single isomer, unassigned) [Compound 112], the IC50 was 1.7 nM.

Turning to `CN1C(=O)c2c(O)c(=O)c(C(=O)NCc3c(F)ccc(Cl)c3F)c3n2N(CC3O)C12CCOC2` (single isomer, unassigned) [Compound 115], the IC50 under setting [1] is 2 nM.

With `CN1C(=O)c2c(O)c(=O)c(C(=O)NCc3c(F)ccc(Cl)c3F)c3n2N(CC3O)C12CCOC2` (single isomer, unassigned) [Compound 116], the IC50 was determined as 3.1 nM.

Regarding `CN1CN2CC(O)c3c(C(=O)NCc4ccc(F)cc4F)c(=O)c(O)c(n32)C1=O` (stereo not shown) [Compound 3], under setting [1], the IC50 came out at 3.2 nM.

On to `CN1CN2CC(O)c3c(C(=O)NCc4ccc(F)cc4F)c(=O)c(O)c(n32)C1=O` (stereo not shown) [Compound 4], for which the IC50 was 3.5 nM.

With `CN1CN2CC(O)c3c(C(=O)NCc4ccc(F)cc4)c(=O)c(O)c(n32)C1=O` (stereo not shown) [Compound 5], under setting [1], the IC50 is 3.5 nM.

Take `CN1CN2CC(O)c3c(C(=O)NCc4ccc(F)cc4)c(=O)c(O)c(n32)C1=O` (stereo not shown) [Compound 6]: the IC50 was determined as 3 nM.

Take `CN1CN2CC(O)c3c(C(=O)NCc4c(F)ccc(Cl)c4F)c(=O)c(O)c(n32)C1=O` (stereo not shown) [Compound 7]: the IC50 under setting [1] is 1.6 nM.

Turning to `CN1CN2CC(O)c3c(C(=O)NCc4c(F)ccc(Cl)c4F)c(=O)c(O)c(n32)C1=O` (stereo not shown) [Compound 8], the IC50 was 1.9 nM.

Take `CC1N(C)C(=O)c2c(O)c(=O)c(C(=O)NCc3ccc(F)cc3F)c3n2N1CC3O` (stereo not shown) [Compound 15]: the IC50 under setting [1] worked out at 2.6 nM.

With `CC1N(C)C(=O)c2c(O)c(=O)c(C(=O)NCc3ccc(F)cc3F)c3n2N1CC3O` (stereo not shown) [Compound 16], the IC50 turned out to be 1.9 nM.

With `CC1N(C)C(=O)c2c(O)c(=O)c(C(=O)NCc3c(F)cc(F)cc3F)c3n2N1CC3O` (stereo not shown) [Compound 19], the IC50 under setting [1] was 2.7 nM.

`CC1N(C)C(=O)c2c(O)c(=O)c(C(=O)NCc3c(F)cc(F)cc3F)c3n2N1CC3O` (stereo not shown) [Compound 20]: the IC50 was found to be 1.7 nM.

With `CC1N(C)C(=O)c2c(O)c(=O)c(C(=O)NCc3c(F)ccc(F)c3F)c3n2N1CC3O` (stereo not shown) [Compound 23], under setting [1], the IC50 amounted to 2.3 nM.

Take `CC1N(C)C(=O)c2c(O)c(=O)c(C(=O)NCc3c(F)ccc(F)c3F)c3n2N1CC3O` (stereo not shown) [Compound 24]: the IC50 is 1.5 nM.

As for `CCC1N(C)C(=O)c2c(O)c(=O)c(C(=O)NCc3c(F)ccc(Cl)c3F)c3n2N1CC3O` (stereo not shown) [Compound 27], the IC50 under setting [1] was determined as 2.9 nM.

As to `CCC1N(C)C(=O)c2c(O)c(=O)c(C(=O)NCc3c(F)ccc(Cl)c3F)c3n2N1CC3O` (stereo not shown) [Compound 28], the IC50 worked out at 3.3 nM.

Regarding `CCC1N(C)C(=O)c2c(O)c(=O)c(C(=O)NCc3ccc(F)cc3F)c3n2N1CC3O` (stereo not shown) [Compound 31], the IC50 under setting [1] stood at 4.9 nM.

Consider `CCC1N(C)C(=O)c2c(O)c(=O)c(C(=O)NCc3ccc(F)cc3F)c3n2N1CC3O` (stereo not shown) [Compound 32], for which the IC50 was 2.5 nM.

On to `CCC1N(C)C(=O)c2c(O)c(=O)c(C(=O)NCc3c(F)cc(F)cc3F)c3n2N1CC3O` (stereo not shown) [Compound 35], for which the IC50 under setting [1] worked out at 2.1 nM.

For `CCC1N(C)C(=O)c2c(O)c(=O)c(C(=O)NCc3c(F)cc(F)cc3F)c3n2N1CC3O` (stereo not shown) [Compound 36], the IC50 stood at 1.5 nM.

Turning to `COCCN1CN2CC(O)c3c(C(=O)NCc4ccc(F)c(Cl)c4F)c(=O)c(O)c(n32)C1=O` (stereo not shown) [Compound 39], the IC50 under setting [1] is 2.2 nM.

With `COCCN1CN2CC(O)c3c(C(=O)NCc4ccc(F)c(Cl)c4F)c(=O)c(O)c(n32)C1=O` (stereo not shown) [Compound 40], the IC50 is 2.1 nM.

As for `COCCN1CN2CC(O)c3c(C(=O)NCc4cccc(Cl)c4F)c(=O)c(O)c(n32)C1=O` (stereo not shown) [Compound 41], the IC50 under setting [1] came to 2.8 nM.
